Data on nine compounds can be found in patent publication US20220056037A1 (SPV THERAPEUTICS INC., priority 2018, published 2022).

Where two headings read alike, the source gives them in different places. Where only a bound is given, the exact number is not on record here.

Test in all cases: Inhibition assay, microfluidic LabChip (Nanosyn)
What all share (type): biochemical

One assay deals with T1, CDK9-CYCLINT1 (Homo sapiens, UniProt P50750).
T1 construct: purchased Carna
As to the method: (§1) The reaction was terminated by the addition of EDTA. The plates were analyzed using a Caliper LabChip 3000.
(§2) Additional inhibition assays were performed as described above.

The target in a further assay is CDK1/B (Homo sapiens, UniProt P06493). As to conditions: Table 3a. On the procedure: as §1, §2
Sequence of CDK1/B (P06493 whole entry): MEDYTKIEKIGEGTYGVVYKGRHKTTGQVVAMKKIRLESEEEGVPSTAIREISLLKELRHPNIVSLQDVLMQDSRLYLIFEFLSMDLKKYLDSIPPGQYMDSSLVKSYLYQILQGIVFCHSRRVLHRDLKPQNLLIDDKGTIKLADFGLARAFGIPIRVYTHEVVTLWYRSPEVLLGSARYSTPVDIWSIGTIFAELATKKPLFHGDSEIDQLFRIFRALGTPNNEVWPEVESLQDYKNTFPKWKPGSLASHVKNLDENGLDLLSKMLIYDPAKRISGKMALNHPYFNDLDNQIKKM
Sequence of CDK1/B (P14635 whole entry partner): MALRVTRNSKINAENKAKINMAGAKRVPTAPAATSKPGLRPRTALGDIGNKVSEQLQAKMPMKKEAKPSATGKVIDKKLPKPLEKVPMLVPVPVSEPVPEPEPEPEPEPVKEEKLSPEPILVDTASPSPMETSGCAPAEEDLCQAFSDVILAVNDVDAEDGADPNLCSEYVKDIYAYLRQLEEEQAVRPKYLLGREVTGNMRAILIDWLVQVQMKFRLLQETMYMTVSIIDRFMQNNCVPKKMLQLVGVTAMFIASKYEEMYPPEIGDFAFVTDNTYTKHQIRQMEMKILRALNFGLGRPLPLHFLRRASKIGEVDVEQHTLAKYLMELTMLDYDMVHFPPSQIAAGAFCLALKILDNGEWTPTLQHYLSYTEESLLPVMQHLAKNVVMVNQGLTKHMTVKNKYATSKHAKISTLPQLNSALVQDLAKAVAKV
In another assay the target is CDK7 CyclinH (Homo sapiens, UniProt P50613). On the procedure: as §1, §2
Sequence of CDK7 CyclinH (P50613 whole entry): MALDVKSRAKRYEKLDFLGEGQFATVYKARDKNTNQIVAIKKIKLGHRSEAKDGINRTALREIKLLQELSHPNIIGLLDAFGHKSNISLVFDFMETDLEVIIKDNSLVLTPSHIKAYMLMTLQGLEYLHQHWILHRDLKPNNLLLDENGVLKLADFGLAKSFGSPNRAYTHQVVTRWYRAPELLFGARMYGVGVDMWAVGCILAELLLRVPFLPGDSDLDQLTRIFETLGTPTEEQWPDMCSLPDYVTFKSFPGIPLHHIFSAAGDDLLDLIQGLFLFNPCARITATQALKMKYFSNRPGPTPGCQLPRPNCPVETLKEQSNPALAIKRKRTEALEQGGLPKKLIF
Sequence of CDK7 CyclinH (P51946 whole entry partner): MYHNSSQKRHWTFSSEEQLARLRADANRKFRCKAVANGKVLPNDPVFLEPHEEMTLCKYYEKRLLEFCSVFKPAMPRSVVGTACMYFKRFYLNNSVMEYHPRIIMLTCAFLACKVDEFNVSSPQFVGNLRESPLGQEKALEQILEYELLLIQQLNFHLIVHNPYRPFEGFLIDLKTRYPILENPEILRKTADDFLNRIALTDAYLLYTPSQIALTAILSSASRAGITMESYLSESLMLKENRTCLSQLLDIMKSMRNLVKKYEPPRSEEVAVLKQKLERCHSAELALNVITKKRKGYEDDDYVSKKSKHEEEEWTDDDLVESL
Sequence of CDK7 CyclinH (P51948 whole entry partner): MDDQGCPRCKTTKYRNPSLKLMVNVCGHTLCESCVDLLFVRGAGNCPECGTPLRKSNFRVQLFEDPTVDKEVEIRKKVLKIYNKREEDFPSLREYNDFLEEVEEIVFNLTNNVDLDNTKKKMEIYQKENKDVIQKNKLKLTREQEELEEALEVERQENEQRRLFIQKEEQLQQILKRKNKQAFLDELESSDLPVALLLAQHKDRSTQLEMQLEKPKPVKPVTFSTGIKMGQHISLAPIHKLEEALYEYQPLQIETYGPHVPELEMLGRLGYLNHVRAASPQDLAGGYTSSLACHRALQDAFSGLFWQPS
A further assay deals with T2, CDK2-CYCLINA (Homo sapiens, UniProt P24941).
T2 construct: purchased Millipore
On the procedure:
as §1, §2

Another assay addresses T3, CDK4-CYCLIND1 (Homo sapiens, UniProt P11802).
T3 construct: purchased Invitrogen
As to conditions: read-out: CDK4 CyclinD1 IC50. As to the method:
as §1, §2

T1 sequence (P50750 whole entry): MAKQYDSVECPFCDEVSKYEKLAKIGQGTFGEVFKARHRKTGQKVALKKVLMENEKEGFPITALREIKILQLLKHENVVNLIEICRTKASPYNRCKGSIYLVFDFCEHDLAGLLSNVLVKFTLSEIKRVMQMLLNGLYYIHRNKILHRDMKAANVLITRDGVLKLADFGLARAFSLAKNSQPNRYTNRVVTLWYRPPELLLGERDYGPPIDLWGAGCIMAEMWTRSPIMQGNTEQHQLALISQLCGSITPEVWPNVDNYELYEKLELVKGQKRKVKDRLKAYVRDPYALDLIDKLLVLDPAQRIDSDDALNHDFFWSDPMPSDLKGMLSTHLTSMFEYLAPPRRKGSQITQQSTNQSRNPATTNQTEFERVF
T1 sequence (O60563 whole entry partner): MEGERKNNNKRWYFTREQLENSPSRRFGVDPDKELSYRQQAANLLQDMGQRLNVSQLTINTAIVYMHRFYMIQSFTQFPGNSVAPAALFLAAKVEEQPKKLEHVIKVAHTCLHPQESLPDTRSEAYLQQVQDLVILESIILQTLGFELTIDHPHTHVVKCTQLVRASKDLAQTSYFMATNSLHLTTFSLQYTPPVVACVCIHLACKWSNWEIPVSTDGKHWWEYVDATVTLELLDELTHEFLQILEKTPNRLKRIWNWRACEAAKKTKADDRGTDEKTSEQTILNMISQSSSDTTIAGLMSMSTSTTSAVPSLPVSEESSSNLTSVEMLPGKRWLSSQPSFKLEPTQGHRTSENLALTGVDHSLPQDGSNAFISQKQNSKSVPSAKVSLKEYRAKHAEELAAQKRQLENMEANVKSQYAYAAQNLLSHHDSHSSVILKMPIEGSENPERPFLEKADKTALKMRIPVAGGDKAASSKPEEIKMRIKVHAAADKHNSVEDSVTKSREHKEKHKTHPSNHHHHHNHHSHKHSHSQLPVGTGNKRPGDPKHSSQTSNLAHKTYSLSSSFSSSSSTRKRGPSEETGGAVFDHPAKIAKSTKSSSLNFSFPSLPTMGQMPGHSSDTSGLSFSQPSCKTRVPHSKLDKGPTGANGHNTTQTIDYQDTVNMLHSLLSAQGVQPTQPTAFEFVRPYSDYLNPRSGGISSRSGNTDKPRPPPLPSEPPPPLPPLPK
T3 sequence (P11802 whole entry): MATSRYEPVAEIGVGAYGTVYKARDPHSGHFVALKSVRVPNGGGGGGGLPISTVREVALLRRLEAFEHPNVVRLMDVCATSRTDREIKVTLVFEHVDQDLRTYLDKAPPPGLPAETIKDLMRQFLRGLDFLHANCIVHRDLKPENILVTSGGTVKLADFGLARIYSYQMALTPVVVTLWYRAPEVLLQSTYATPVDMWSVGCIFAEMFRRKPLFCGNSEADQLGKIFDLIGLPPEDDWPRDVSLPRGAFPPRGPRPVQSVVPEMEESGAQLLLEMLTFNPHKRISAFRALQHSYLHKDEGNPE
T3 sequence (P24385 whole entry partner): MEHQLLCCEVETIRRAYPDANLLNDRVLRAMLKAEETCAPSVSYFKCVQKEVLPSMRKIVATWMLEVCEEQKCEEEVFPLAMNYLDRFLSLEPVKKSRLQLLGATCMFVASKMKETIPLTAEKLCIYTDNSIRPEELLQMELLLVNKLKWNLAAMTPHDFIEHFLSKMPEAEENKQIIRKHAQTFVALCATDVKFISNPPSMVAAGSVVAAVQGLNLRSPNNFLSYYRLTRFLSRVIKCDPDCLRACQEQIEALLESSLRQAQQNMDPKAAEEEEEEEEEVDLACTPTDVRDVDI

The term IC50 denotes the midpoint of a concentration-inhibition curve. With `CN1CC2(C1)CN(c1ccc(Nc3ncc4cc(C(=O)N(C)C)n(C56CC(C5)C6)c4n3)cc1)C2` [Compound A69, 7-(bicyclo[1.1.1]pentan-1-yl)-N,N-dimethyl-2-((4-(6-methyl-2,6-diazaspiro[3.3]heptan-2-yl)phenyl)amino)-7H-pyrrolo[2,3-d]pyrimidine-6-carboxamide], the IC50 was 5.1 nM on CDK9-CYCLINT1 (Table 3a); 1830 nM on CDK1/B; > 10000 nM on CDK7 CyclinH (Table 3a); > 10000 nM against CDK7 CyclinH (Table 3b); 1470 nM on CDK2-CYCLINA (Table 3a); 1470 nM against CDK2-CYCLINA (Table 3b). In addition, the IC50 on CDK4-CYCLIND1 (Table 3a) and on CDK4-CYCLIND1 (Table 3b) was 14 nM throughout.
As to `CN1CC2(C1)CN(c1ccc(Nc3ncc4cc(C(=O)N(C)C)n(C56CC(C5)C6)c4n3)cc1F)C2` [Compound A70, 7-(bicyclo[1.1.1]pentan-1-yl)-2-((3-fluoro-4-(6-methyl-2,6-diazaspiro[3.3]heptan-2-yl)phenyl)amino)-N,N-dimethyl-7H-pyrrolo[2,3-d]pyrimidine-6-carboxamide], the IC50 on CDK9-CYCLINT1 (Table 3a) came out at 4.76 nM; on CDK1/B, 732 nM; against CDK7 CyclinH (Table 3a), 5010 nM; against CDK7 CyclinH (Table 3b), 5010 nM; on CDK2-CYCLINA (Table 3a), 631 nM; on CDK2-CYCLINA (Table 3b) it was 631 nM. The IC50 on CDK4-CYCLIND1 (Table 3a) and at CDK4-CYCLIND1 (Table 3b) was 15.9 nM in each case.
Turning to `CN(C)C(=O)c1cc2cnc(Nc3ccc(N4CCN(CCO)CC4)c(F)c3)nc2n1C12CC(C1)C2` [Compound A74, 7-(bicyclo[1.1.1]pentan-1-yl)-2-((3-fluoro-4-(4-(2-hydroxyethyl)piperazin-1-yl)phenyl)amino)-N,N-dimethyl-7H-pyrrolo[2,3-d]pyrimidine-6-carboxamide], the IC50 against CDK9-CYCLINT1 (Table 3a) is < 3.2 nM; against CDK9-CYCLINT1 (Table 3b), < 3.2 nM; on CDK1/B it was 250 nM; against CDK7 CyclinH (Table 3a) it was 938 nM; against CDK7 CyclinH (Table 3b), 938 nM; against CDK2-CYCLINA (Table 3a), 245 nM. The figures for the IC50 at CDK2-CYCLINA (Table 3b), on CDK4-CYCLIND1 (Table 3a) and at CDK4-CYCLIND1 (Table 3b) were 245 nM, < 3.2 nM and < 3.2 nM, respectively.
In the case of `CN(C)C(=O)c1cc2cnc(Nc3ccc(S(C)(=O)=O)cc3)nc2n1C12CC(C1)C2` [Compound A79, 7-(bicyclo[1.1.1]pentan-1-yl)-N,N-dimethyl-2-((4-(methylsulfonyl)phenyl)amino)-7H-pyrrolo[2,3-d]pyrimidine-6-carboxamide], the IC50 is < 3.2 nM at CDK9-CYCLINT1 (Table 3a); < 3.2 nM on CDK9-CYCLINT1 (Table 3b); 97.1 nM at CDK1/B; > 10000 nM against CDK7 CyclinH (Table 3a); > 10000 nM on CDK7 CyclinH (Table 3b); 30.2 nM at CDK2-CYCLINA (Table 3a). The IC50 came out at 30.2 nM against CDK2-CYCLINA (Table 3b), 36 nM on CDK4-CYCLIND1 (Table 3a) and 36 nM at CDK4-CYCLIND1 (Table 3b).
As for `CN1CCN(c2ccc(Nc3ncc4cc(C(=O)N(C)C)n(C56CC(C5)C6)c4n3)cc2)CC1` [Compound A88, 7-(bicyclo[1.1.1]pentan-1-yl)-N,N-dimethyl-2-((4-(4-methylpiperazin-1-yl)phenyl)amino)-7H-pyrrolo[2,3-d]pyrimidine-6-carboxamide dihydrogen chloride], the IC50 amounted to 5.1 nM against CDK9-CYCLINT1 (Table 3a); 5.1 nM against CDK9-CYCLINT1 (Table 3b); 379 nM against CDK1/B; 1650 nM at CDK7 CyclinH (Table 3a); 1650 nM against CDK7 CyclinH (Table 3b); 354 nM against CDK2-CYCLINA (Table 3a). Further, the IC50 against CDK2-CYCLINA (Table 3b) was 354 nM; at CDK4-CYCLIND1 (Table 3a), < 3.2 nM; on CDK4-CYCLIND1 (Table 3b) it was < 3.2 nM.
Take `CC1CN(c2ccc(Nc3ncc4cc(C(=O)N(C)C)n(C56CC(C5)C6)c4n3)cc2)CC(C)N1` (centres unmarked) [Compound A90, 7-(bicyclo[1.1.1]pentan-1-yl)-2-((4-(3,5-dimethylpiperazin-1-yl)phenyl)amino)-N,N-dimethyl-7H-pyrrolo[2,3-d]pyrimidine-6-carboxamide]: the IC50 stood at 9.26 nM against CDK9-CYCLINT1 (Table 3a); 1150 nM on CDK1/B; 5610 nM against CDK7 CyclinH (Table 3a); 5610 nM against CDK7 CyclinH (Table 3b); 913 nM at CDK2-CYCLINA (Table 3a); 913 nM on CDK2-CYCLINA (Table 3b). The IC50 on CDK4-CYCLIND1 (Table 3a) and on CDK4-CYCLIND1 (Table 3b) was 11.1 nM throughout.
As for `CC1CCN(c2ccc(Nc3ncc4cc(C(=O)N(C)C)n(C56CC(C5)C6)c4n3)cc2)CC1` [Compound A91, 7-(bicyclo[1.1.1]pentan-1-yl)-N,N-dimethyl-2-((4-(4-methylpiperidin-1-yl)phenyl)amino)-7H-pyrrolo[2,3-d]pyrimidine-6-carboxamide], the IC50 against CDK9-CYCLINT1 (Table 3a) was 7.14 nM; on CDK1/B, 1330 nM; on CDK7 CyclinH (Table 3a) it was 5790 nM; at CDK7 CyclinH (Table 3b) it was 5790 nM; against CDK2-CYCLINA (Table 3a) it was 690 nM; on CDK2-CYCLINA (Table 3b), 690 nM. For the same compound, the IC50 at CDK4-CYCLIND1 (Table 3a) and at CDK4-CYCLIND1 (Table 3b) was 25.5 nM each time.
Consider `Cc1cc(Nc2ncc3cc(C(=O)N(C)C)n(C45CC(C4)C5)c3n2)ccc1OCCN(C)C` [Compound A92, 7-(bicyclo[1.1.1]pentan-1-yl)-2-((4-(2-(dimethylamino)ethoxy)-3-methylphenyl)amino)-N,N-dimethyl-7H-pyrrolo[2,3-d]pyrimidine-6-carboxamide], for which the IC50 at CDK9-CYCLINT1 (Table 3a) was < 3.2 nM; against CDK9-CYCLINT1 (Table 3b), < 3.2 nM; against CDK1/B, 620 nM; at CDK7 CyclinH (Table 3a), 2650 nM; against CDK7 CyclinH (Table 3b) it was 2650 nM; against CDK2-CYCLINA (Table 3a), 713 nM. Besides, the IC50 against CDK2-CYCLINA (Table 3b) was found to be 713 nM; at CDK4-CYCLIND1 (Table 3a), 14.7 nM; at CDK4-CYCLIND1 (Table 3b), 14.7 nM.
In the case of `CN(C)CCOc1ccc(Nc2ncc3cc(C(=O)N(C)C)n(C45CC(C4)C5)c3n2)cc1F` [Compound A93, 7-(bicyclo[1.1.1]pentan-1-yl)-2-((4-(2-(dimethylamino)ethoxy)-3-fluorophenyl)amino)-N,N-dimethyl-7H-pyrrolo[2,3-d]pyrimidine-6-carboxamide], the IC50 is < 3.2 nM against CDK9-CYCLINT1 (Table 3a); < 3.2 nM against CDK9-CYCLINT1 (Table 3b); 655 nM against CDK1/B; 2140 nM against CDK7 CyclinH (Table 3a); 2140 nM against CDK7 CyclinH (Table 3b); 742 nM against CDK2-CYCLINA (Table 3a). Further, the IC50 on CDK2-CYCLINA (Table 3b) came to 742 nM; at CDK4-CYCLIND1 (Table 3a) it was 6.98 nM; at CDK4-CYCLIND1 (Table 3b), 6.98 nM.
